Source: patent publication US9828378B2, “Kinase inhibitors and methods of use” (Intellikine LLC, priority 2008, dated 2017)
Like-named read-outs stand apart in the source and are kept apart here.

How the values were obtained:
Assay type in all cases: biochemical
mTORC = mTORC (Homo sapiens (Human), UniProt P42345); assay: mTOR kinase inhibition assay; conditions: Table 1; read-out: mTORC IC50
Procedure: The compounds described herein can be tested against recombinant mTOR (Invitrogen) in an assay containing 50 mM HEPES, pH 7.5, 1 mM EGTA, 10 mM MgCl2, 2.5 mM, 0.01% Tween, 10 μM ATP (2.5 μCi of p-32P-ATP), and 3 μg/mL BSA. Rat recombinant PHAS-1/4EBP1 (Calbiochem; 2 mg/mL) is used as a substrate. Reactions are terminated by spotting onto nitrocellulose, which is washed with 1M NaCl/1% phosphoric acid (approximately 6 times, 5-10 minutes each). Sheets are dried and the transferred radioactivity quantitated by phosphorimaging.
For instance, one can use Invitrogen's LanthaScreen™ Kinase assay to test the inhibitors of mTOR disclosed herein. This assay is a time resolved FRET platform that measures the phosphorylation of GFP labeled 4EBP1 by mTOR kinase. The kinase reaction is performed in a white 384 well microtitre plate. The total reaction volume is 20 ul per well and the reaction buffer composition is 50 mM HEPES pH7.5, 0.01% Polysorbate 20, 1 mM EGTA, 10 mM MnCl2, and 2 mM DTT. In the first step, each well receives 2 ul of test compound in 20% dimethylsulphoxide resulting in a 2% DMSO final concentration. Next, 8 ul of mTOR diluted in reaction buffer is added per well for a 60 ng/ml final concentration. To start the reaction, 10 ul of an ATP/GFP-4EBP1 mixture (diluted in reaction buffer) is added per well for a final concentration of 10 uM ATP and 0.5 uM GFP-4EBP1. The plate is sealed and incubated for 1 hour at room temperature. […] The plate is sealed, incubated for 1 hour at room temperature, and then read on a plate reader set up for LanthaScreen™ TR-FRET. Data is analyzed and IC50s are generated using GraphPad Prism 5.

PI3K α = PI3K α (Homo sapiens (Human), UniProt P42336); assay: PI3K α inhibition assay; conditions: Table 1; read-out: PI3K α IC50
Sequence of PI3K α (P42336 whole entry): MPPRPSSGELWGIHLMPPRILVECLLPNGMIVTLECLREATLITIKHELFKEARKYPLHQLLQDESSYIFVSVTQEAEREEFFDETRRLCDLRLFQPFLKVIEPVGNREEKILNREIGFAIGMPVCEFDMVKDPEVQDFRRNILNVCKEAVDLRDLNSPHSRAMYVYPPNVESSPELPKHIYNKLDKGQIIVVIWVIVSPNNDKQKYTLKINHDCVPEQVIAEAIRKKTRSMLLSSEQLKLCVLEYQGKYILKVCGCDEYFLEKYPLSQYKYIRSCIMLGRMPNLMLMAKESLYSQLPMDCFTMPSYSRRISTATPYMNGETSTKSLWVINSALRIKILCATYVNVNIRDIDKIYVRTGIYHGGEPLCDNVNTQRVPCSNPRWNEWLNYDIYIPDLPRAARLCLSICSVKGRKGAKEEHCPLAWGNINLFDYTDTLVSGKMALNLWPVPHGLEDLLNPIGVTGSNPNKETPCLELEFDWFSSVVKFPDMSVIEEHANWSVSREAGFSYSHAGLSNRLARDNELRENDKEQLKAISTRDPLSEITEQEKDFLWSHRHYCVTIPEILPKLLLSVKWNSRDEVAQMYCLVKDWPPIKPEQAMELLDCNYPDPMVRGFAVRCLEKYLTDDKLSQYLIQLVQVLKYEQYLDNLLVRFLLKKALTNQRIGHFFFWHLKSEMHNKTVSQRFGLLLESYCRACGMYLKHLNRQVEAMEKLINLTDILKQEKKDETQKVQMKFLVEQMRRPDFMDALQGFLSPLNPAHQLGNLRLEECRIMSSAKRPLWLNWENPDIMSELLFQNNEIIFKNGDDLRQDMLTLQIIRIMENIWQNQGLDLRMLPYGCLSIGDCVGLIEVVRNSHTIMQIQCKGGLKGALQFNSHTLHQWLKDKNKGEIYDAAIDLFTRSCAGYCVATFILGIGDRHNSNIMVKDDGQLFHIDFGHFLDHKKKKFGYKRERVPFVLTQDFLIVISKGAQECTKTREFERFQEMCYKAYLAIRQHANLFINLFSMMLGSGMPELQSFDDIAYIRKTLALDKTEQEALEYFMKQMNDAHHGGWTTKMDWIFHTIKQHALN
Sequence of PI3K α (P27986 whole entry partner): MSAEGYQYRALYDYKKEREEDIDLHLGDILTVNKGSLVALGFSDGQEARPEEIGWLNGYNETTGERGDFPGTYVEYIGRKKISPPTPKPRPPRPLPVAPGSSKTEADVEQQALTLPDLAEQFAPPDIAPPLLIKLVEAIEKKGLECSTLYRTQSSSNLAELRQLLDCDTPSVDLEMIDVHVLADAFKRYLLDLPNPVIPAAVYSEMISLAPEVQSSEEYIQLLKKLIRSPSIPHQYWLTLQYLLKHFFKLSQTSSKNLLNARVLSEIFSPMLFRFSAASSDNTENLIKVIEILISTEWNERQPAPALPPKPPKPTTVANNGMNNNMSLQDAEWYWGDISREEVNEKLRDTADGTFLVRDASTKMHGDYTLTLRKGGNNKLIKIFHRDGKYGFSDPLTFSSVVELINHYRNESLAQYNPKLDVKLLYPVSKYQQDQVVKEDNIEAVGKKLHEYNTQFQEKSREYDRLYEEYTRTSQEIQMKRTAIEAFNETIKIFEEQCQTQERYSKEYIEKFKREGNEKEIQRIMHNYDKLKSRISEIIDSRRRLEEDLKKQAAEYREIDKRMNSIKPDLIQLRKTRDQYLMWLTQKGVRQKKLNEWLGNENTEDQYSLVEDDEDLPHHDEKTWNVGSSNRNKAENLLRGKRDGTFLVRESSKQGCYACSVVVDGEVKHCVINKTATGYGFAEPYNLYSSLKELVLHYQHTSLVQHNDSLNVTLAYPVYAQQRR
Procedure: (§1) IC50 values are measured using either a standard TLC assay for lipid kinase activity (described below) or a high-throughput membrane capture assay. Kinase reactions are performed by preparing a reaction mixture containing kinase, inhibitor (2% DMSO final concentration), buffer (25 mM HEPES, pH 7.4, 10 mM MgCl2), and freshly sonicated phosphatidylinositol (100 μg/ml). Reactions are initiated by the addition of ATP containing 10 μCi of γ-32P-ATP to a final concentration 10 or 100 μM and allowed to proceed for 5 minutes at room temperature. For TLC analysis, reactions are then terminated by the addition of 105 μl 1N HCl followed by 160 μl CHCl3:MeOH (1:1). The biphasic mixture is vortexed, briefly centrifuged, and the organic phase is transferred to a new tube using a gel loading pipette tip precoated with CHCl3. […] The TLC plates are then dried, exposed to a phosphorimager screen (Storm, Amersham), and quantitated.
(§2) Briefly, the assay is a time resolved FRET assay that indirectly measures PIP3 product formed by the activity of a PI3-K. The kinase reaction is performed in a microtitre plate (e.g., a 384 well microtitre plate). The total reaction volume is approximately 20 ul per well. In the first step, each well receives 2 ul of test compound in 20% dimethylsulphoxide resulting in a 2% DMSO final concentration. Next, approximately 14.5 ul of a kinase/PIP2 mixture (diluted in 1× reaction buffer) is added per well for a final concentration of 0.25-0.3 ug/ml kinase and 10 uM PIP2. The plate is sealed and incubated for 15 minutes at room temperature. To start the reaction, 3.5 ul of ATP (diluted in 1× reaction buffer) is added per well for a final concentration of 10 uM ATP. The plate is sealed and incubated for 1 hour at room temperature. The reaction is stopped by adding 5 ul of Stop Solution per well and then 5 ul of Detection Mix is added per well. The plate is sealed, incubated for 1 hour at room temperature, and then read on an appropriate plate reader. Data is analyzed and IC50s are generated using GraphPad Prism 5.

PI3K β = PI3K β (Homo sapiens (Human), UniProt P42338); assay: PI3K β inhibition assay
Sequence of PI3K β (P42338 whole entry): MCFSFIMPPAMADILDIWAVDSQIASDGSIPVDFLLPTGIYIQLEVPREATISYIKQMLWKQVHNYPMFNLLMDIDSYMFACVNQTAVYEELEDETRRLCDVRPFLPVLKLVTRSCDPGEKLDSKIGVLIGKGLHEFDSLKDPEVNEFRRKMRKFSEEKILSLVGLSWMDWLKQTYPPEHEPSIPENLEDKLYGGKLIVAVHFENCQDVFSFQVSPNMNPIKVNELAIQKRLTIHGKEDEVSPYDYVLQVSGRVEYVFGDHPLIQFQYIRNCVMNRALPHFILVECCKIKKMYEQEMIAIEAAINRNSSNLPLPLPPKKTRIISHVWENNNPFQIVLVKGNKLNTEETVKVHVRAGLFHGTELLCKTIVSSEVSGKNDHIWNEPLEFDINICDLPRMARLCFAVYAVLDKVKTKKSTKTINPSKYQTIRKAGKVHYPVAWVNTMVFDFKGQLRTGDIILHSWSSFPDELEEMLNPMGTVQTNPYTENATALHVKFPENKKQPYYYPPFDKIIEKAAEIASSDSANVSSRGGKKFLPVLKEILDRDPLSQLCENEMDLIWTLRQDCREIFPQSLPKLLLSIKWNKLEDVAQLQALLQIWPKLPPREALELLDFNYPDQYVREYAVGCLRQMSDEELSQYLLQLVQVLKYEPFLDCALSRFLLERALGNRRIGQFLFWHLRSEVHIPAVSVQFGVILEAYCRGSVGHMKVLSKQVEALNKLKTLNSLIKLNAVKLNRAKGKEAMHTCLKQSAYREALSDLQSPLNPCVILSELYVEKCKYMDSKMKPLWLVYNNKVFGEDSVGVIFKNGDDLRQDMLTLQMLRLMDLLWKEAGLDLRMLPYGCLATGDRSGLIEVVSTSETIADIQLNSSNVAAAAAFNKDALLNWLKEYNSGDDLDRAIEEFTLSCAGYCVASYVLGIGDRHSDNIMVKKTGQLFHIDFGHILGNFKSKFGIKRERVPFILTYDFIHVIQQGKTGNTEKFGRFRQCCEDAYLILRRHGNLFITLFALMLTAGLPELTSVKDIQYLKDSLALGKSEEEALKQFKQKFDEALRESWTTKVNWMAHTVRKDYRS
Sequence of PI3K β (P27986 whole entry partner): as the sequence (P27986 whole entry partner) above
Procedure: as §1, §2

PI3K γ = PI3K γ (Homo sapiens (Human), UniProt P48736); assay: PI3K γ inhibition assay; conditions: Table 1; read-out: PI3K γ IC50
Sequence of PI3K γ (P48736 whole entry): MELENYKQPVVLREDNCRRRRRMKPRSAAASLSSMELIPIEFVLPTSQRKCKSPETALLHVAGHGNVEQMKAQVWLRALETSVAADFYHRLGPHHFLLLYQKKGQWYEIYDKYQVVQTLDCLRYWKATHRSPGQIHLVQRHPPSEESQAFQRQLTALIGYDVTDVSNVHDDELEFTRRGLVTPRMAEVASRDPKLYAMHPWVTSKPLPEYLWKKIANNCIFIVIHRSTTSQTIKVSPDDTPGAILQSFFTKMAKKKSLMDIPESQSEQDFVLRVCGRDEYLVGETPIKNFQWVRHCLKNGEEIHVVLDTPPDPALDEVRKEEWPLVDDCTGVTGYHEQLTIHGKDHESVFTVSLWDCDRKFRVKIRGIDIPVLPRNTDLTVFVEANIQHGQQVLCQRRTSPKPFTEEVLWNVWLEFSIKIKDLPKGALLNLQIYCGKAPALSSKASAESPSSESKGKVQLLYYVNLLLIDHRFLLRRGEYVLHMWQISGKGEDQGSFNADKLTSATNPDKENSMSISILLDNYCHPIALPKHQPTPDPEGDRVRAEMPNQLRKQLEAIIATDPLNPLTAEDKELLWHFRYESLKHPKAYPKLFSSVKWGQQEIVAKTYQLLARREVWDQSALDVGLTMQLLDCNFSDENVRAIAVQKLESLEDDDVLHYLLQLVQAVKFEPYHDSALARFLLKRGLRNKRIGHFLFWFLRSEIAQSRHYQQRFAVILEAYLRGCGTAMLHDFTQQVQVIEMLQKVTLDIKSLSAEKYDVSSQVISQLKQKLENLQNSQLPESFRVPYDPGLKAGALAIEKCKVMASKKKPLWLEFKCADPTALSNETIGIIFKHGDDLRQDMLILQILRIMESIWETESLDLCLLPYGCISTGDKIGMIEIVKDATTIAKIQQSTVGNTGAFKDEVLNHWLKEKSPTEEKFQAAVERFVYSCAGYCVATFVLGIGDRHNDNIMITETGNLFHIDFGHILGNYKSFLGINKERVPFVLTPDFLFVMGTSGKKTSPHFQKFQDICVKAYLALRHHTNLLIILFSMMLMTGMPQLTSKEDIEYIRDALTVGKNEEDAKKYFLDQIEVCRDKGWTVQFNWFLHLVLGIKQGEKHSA
Procedure: as §1, §2

PI3K δ = PI3K δ (Homo sapiens (Human), UniProt O00329); assay: PI3K δ inhibition assay; conditions: Table 1; read-out: PI3K δ IC50
Sequence of PI3K δ (O00329 whole entry): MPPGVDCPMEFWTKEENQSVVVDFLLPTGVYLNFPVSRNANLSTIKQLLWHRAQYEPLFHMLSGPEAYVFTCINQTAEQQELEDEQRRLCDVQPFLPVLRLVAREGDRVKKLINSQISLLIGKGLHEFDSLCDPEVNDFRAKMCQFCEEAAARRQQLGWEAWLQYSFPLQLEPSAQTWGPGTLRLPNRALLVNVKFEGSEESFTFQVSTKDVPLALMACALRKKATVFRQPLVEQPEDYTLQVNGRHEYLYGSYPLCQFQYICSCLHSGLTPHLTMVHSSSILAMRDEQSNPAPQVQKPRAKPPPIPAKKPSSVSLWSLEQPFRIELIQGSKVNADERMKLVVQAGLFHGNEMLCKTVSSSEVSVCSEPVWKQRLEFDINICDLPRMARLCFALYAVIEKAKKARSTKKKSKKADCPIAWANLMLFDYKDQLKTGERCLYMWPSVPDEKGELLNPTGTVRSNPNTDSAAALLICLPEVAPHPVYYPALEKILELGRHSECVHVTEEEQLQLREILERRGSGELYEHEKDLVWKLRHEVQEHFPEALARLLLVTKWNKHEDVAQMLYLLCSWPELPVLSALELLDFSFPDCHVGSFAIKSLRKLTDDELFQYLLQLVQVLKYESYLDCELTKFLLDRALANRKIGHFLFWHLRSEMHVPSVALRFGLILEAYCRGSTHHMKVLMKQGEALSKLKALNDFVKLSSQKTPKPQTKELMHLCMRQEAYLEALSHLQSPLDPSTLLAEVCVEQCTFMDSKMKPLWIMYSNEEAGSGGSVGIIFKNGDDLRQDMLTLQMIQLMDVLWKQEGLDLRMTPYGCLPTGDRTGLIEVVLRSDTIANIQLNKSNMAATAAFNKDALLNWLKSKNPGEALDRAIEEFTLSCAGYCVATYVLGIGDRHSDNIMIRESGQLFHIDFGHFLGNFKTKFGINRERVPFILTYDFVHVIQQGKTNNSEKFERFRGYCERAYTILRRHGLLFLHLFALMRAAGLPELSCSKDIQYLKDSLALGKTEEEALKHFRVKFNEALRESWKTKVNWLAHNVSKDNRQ
Sequence of PI3K δ (P27986 whole entry partner): as the sequence (P27986 whole entry partner) above
Procedure: as §1, §2

| Compound | IC50 (mTORC) | IC50 (PI3K α) | IC50 (PI3K β; Table 1, read-out: PI3K β IC50) | IC50 (PI3K γ) | IC50 (PI3K δ) | IC50 (PI3K β) |
| --- | --- | --- | --- | --- | --- | --- |
| Nc1ncnc2c1c(-c1cc3cc(O)ccc3[nH]1)nn2C1CC(O)C1 (stereo not drawn) [Compound 54] | < 0.025 µM | > 0.5 µM | > 0.5 µM | > 0.5 µM | – | – |
| CC(C)N1CCC(n2nc(-c3cc4cc(O)ccc4[nH]3)c3c(N)ncnc32)CC1 [Compound 55] | < 0.5 µM | > 0.5 µM | > 0.5 µM | > 0.5 µM | – | – |
| Nc1ncnc2c1c(-c1cc3ccc(O)cc3[nH]1)nn2C1CCOCC1 [Compound 60] | < 0.1 µM | > 0.5 µM | > 0.5 µM | < 0.1 µM | – | – |
| Nc1ncnc2c1c(-c1cc3cc(O)ccc3[nH]1)nn2Cc1cccnc1 [Compound 38] | < 0.5 µM | > 0.5 µM | – | > 0.5 µM | > 0.5 µM | – |
| Nc1ncnc2c1c(-c1cc3cc(O)ccc3[nH]1)nn2C1CCCCC1 [Compound 26] | < 0.01 µM | > 0.5 µM | > 0.5 µM | < 0.5 µM | < 0.1 µM | – |
| CC(=O)N1CCC(n2nc(-c3cc4cc(O)ccc4[nH]3)c3c(N)ncnc32)CC1 [Compound 30] | < 0.025 µM | > 0.5 µM | > 0.5 µM | – | > 0.5 µM | – |
| COc1cc2cc(-c3nn(C(C)C)c4ncnc(N)c34)[nH]c2cc1Cl [Compound 29] | > 0.5 µM | – | – | – | – | – |
| Nc1ncnc2c1c(-c1cc3cc(O)ccc3[nH]1)nn2C1CCC(N2CCOCC2)CC1 (stereo not drawn) [Compound 57] | < 0.025 µM | > 0.5 µM | > 0.5 µM | > 0.5 µM | – | – |
| COc1ccc(Cl)c2cc(-c3nn(C4CCOCC4)c4ncnc(N)c34)[nH]c12 [Compound 61] | < 0.025 µM | > 0.5 µM | > 0.5 µM | > 0.5 µM | > 0.5 µM | – |
| Nc1ncnc2c1c(-c1cc3cc(O)ccc3[nH]1)nn2C1CC(=O)C1 [Compound 53] | < 0.1 µM | > 0.5 µM | > 0.5 µM | > 0.5 µM | – | – |
| CC(C)n1nc(-c2cc3ccc(C#N)cc3[nH]2)c2c(N)ncnc21 [Compound 24] | > 0.5 µM | > 0.5 µM | – | – | – | – |
| Nc1ncnc2c1c(-c1cc3cc(O)ccc3[nH]1)nn2CC(=O)N1CCOCC1 [Compound 34] | > 0.5 µM | > 0.5 µM | – | > 0.5 µM | > 0.5 µM | – |
| COc1cccc2cc(-c3nn(C4CCN(C(=O)C5CC5)CC4)c4ncnc(N)c34)[nH]c12 [Compound 66] | > 0.5 µM | > 0.5 µM | > 0.5 µM | > 0.5 µM | > 0.5 µM | – |
| CC(C)n1nc(-c2cc3cccc(Cl)c3[nH]2)c2c(N)ncnc21 [Compound 50] | < 0.05 µM | > 0.5 µM | > 0.5 µM | < 0.5 µM | < 0.5 µM | – |
| CC(C)n1nc(-c2cc3c(Cl)ccc(O)c3[nH]2)c2c(N)ncnc21 [Compound 39] | < 0.01 µM | > 0.5 µM | – | > 0.5 µM | > 0.5 µM | – |
| Nc1ncnc2c1c(-c1cc3cc(O)ccc3[nH]1)nn2CCN1CCOCC1 [Compound 33] | < 0.5 µM | > 0.5 µM | – | > 0.5 µM | > 0.5 µM | – |
| Nc1ncnc2c1c(-c1cc3c(Cl)cccc3[nH]1)nn2C1CCOCC1 [Compound 48] | < 0.05 µM | > 0.5 µM | > 0.5 µM | > 0.5 µM | > 0.5 µM | – |
| CC(=O)N1CCC(n2nc(-c3cc4c(Cl)ccc(O)c4[nH]3)c3c(N)ncnc32)CC1 [Compound 69] | < 0.005 µM | > 0.5 µM | > 0.5 µM | > 0.5 µM | < 0.5 µM | – |
| CNC(=O)Cn1nc(-c2cc3cc(O)ccc3[nH]2)c2c(N)ncnc21 [Compound 35] | > 0.5 µM | > 0.5 µM | – | > 0.5 µM | > 0.5 µM | – |
| CC(C)n1nc(-c2cc3ccc(C(N)=O)cc3[nH]2)c2c(N)ncnc21 [Compound 25] | < 0.5 µM | > 0.5 µM | – | – | – | – |

| Compound | IC50 (mTORC) | IC50 (PI3K α) | IC50 (PI3K β; Table 1, read-out: PI3K β IC50) | IC50 (PI3K γ) | IC50 (PI3K δ) | IC50 (PI3K β) |
| --- | --- | --- | --- | --- | --- | --- |
| Nc1ncnc2c1c(-c1cc3cccc(O)c3[nH]1)nn2C1CCCC1 [Compound 36] | < 0.01 µM | > 0.5 µM | – | < 0.1 µM | < 0.5 µM | – |
| Nc1ncnc2c1c(-c1cc3cc(O)ccc3[nH]1)nn2C1CCC1 [Compound 27] | < 0.025 µM | – | – | – | – | – |
| CNC(=O)CCn1nc(-c2cc3cc(O)ccc3[nH]2)c2c(N)ncnc21 [Compound 43] | > 0.5 µM | > 0.5 µM | > 0.5 µM | – | > 0.5 µM | – |
| Nc1ncnc2c1c(-c1cc3cc(O)ccc3[nH]1)nn2C1CC(N2CCOCC2)C1 (stereo not drawn) [Compound 49] | < 0.01 µM | > 0.5 µM | > 0.5 µM | < 0.5 µM | < 0.5 µM | – |
| CC(=O)N1CCC(n2nc(-c3cc4ccc(O)cc4[nH]3)c3c(N)ncnc32)CC1 [Compound 65] | < 0.01 µM | < 0.05 µM | > 0.5 µM | < 0.025 µM | < 0.025 µM | – |
| COc1cc(Cl)c2[nH]c(-c3nn(C4CCOCC4)c4ncnc(N)c34)cc2c1 [Compound 67] | > 0.5 µM | > 0.5 µM | > 0.5 µM | > 0.5 µM | > 0.5 µM | – |
| Nc1ncnc2c1c(-c1cc3cccc(O)c3[nH]1)nn2C1CCOCC1 [Compound 62] | < 0.005 µM | > 0.5 µM | > 0.5 µM | > 0.5 µM | < 0.1 µM | – |
| Nc1ncnc2c1c(-c1cc3cc(O)ccc3[nH]1)nn2C1CCOCC1 [Compound 42] | < 0.005 µM | > 0.5 µM | > 0.5 µM | – | < 0.1 µM | – |
| CC(C)n1nc(-c2cc3c(O)cccc3[nH]2)c2c(N)ncnc21 [Compound 37] | > 0.5 µM | < 0.5 µM | – | < 0.5 µM | < 0.5 µM | – |
| COc1ccc2cc(-c3nn(C4CCOCC4)c4ncnc(N)c34)[nH]c2c1 [Compound 59] | > 0.5 µM | > 0.5 µM | > 0.5 µM | > 0.5 µM | – | – |
| Nc1ncnc2c1c(-c1cc3cc(O)ccc3[nH]1)nn2C1CCN(C(=O)C2CC2)CC1 [Compound 31] | < 0.025 µM | > 0.5 µM | > 0.5 µM | – | < 0.5 µM | – |
| CC(C)n1nc(-c2cc3cc(O)ccc3[nH]2)c2c(N)nccc21 [Compound 45] | > 0.5 µM | – | – | – | – | – |
| CCOC(=O)Cn1nc(-c2cc3cc(O)ccc3[nH]2)c2c(N)ncnc21 [Compound 28] | < 0.5 µM | > 0.5 µM | > 0.5 µM | – | > 0.5 µM | – |
| CC(C)n1nc(-c2cc3cc(O)c(Cl)cc3[nH]2)c2c(N)ncnc21 [Compound 32] | < 0.5 µM | > 0.5 µM | – | > 0.5 µM | > 0.5 µM | – |
| COCCn1nc(-c2cc3cc(O)ccc3[nH]2)c2c(N)ncnc21 [Compound 40] | < 0.1 µM | > 0.5 µM | – | > 0.5 µM | > 0.5 µM | – |
| Cc1nccn1CCn1nc(-c2cc3cc(O)ccc3[nH]2)c2c(N)ncnc21 [Compound 44] | < 0.1 µM | > 0.5 µM | > 0.5 µM | – | > 0.5 µM | – |
| CNC(=O)Nc1nc2ccc(-c3cn(C(C)C)c4ncnc(N)c34)cc2s1 [Compound 22] | – | – | – | – | – | ≤ 0.05 µM |
| CN1CCN(C2CCC(n3nc(-c4cc5cc(O)ccc5[nH]4)c4c(N)ncnc43)CC2)CC1 (stereo not drawn) [Compound 58] | > 0.5 µM | > 0.5 µM | > 0.5 µM | > 0.5 µM | – | – |
| CC(C)N1CCC(n2nc(-c3cc4cc(O)cc(Cl)c4[nH]3)c3c(N)ncnc32)CC1 [Compound 56] | > 0.5 µM | > 0.5 µM | > 0.5 µM | > 0.5 µM | – | – |
